The source of these data is patent publication US12600709B2, “Nonpeptide somatostatin type 5 receptor agonists and uses thereof” (Crinetics Pharmaceuticals, Inc., priority 2019, dated 2026).

The target in one assay is T1, human somatostatin receptor subtype 5 (Homo sapiens, UniProt P35346).
T1 construct: expressed in transfected cells
T1 sequence (P35346 whole entry): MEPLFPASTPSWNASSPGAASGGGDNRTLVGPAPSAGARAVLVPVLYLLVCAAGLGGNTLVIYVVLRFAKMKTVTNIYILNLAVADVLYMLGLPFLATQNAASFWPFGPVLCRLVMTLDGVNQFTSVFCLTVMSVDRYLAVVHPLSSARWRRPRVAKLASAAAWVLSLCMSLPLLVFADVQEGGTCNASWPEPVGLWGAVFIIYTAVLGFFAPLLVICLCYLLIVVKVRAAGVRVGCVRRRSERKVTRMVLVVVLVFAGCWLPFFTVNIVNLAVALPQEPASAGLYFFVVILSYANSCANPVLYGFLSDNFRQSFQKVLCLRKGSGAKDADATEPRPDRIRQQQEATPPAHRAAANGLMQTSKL
The assay can be described thus: cAMP assay for SST5R (inhibition of cAMP in CHO-K1 cells). The assay is classed as cell-based. The note with it: Table A; inhibition of cAMP via human SST5 receptor; read-out: SST5 potency. The gist of the method: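 CHO-K1 cells stably expressing human SSTR5 were treated 20 min at 37 °C with compounds plus 1.6 μM NKH477 in HBSS, 0.5 mM HEPES pH 7.4, 0.1% BSA, 0.2 mM IBMX. Lysate cAMP measured by HTRF against a standard curve; EC50 from cAMP-versus-concentration plots.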
As for `C[C@H](NC(=O)c1cnc(C(F)(F)F)c(-c2ccc(F)c(F)c2)c1N1CC[C@](C)(N)C1)C1CC1` [1-209, 4-[(3S)-3-amino-3-methylpyrrolidin-1-yl]-N-[(1S)-1-cyclopropylethyl]-5-(3,4-difluorophenyl)-6-(trifluoromethyl)pyridine-3-carboxamide], the EC50 is less than 10 nM.
Same read-out and setting: the same measure for `C[C@]1(N)CCN(c2c(C(=O)NC3CCC(F)(F)CC3)cnc(C(F)(F)F)c2-c2cc(F)cc(F)c2)C1` [1-211, 4-[(3S)-3-amino-3-methylpyrrolidin-1-yl]-N-(4,4-difluorocyclohexyl)-5-(3,5-difluorophenyl)-6-(trifluoromethyl)pyridine-3-carboxamide]: less than 10 nM.
Still for that read-out and setting: the same measure for `CN(CC1CC1)C(=O)c1cnc(C#N)c(-c2cc(F)cc(F)c2)c1N1CC[C@](C)(N)C1` [1-218, 4-[(3S)-3-amino-3-methylpyrrolidin-1-yl]-6-cyano-N-(cyclopropylmethyl)-5-(3,5-difluorophenyl)-N-methylpyridine-3-carboxamide]: 100 to 1000 nM; for `C[C@@H](C1CC1)N(C)C(=O)c1cnc(C#N)c(-c2cc(F)cc(F)c2)c1N1CC[C@](C)(N)C1` [1-219, 4-[(3S)-3-amino-3-methylpyrrolidin-1-yl]-6-cyano-N-[(1S)-1-cyclopropylethyl]-5-(3,5-difluorophenyl)-N-methylpyridine-3-carboxamide]: less than 10 nM.
Same read-out and setting: then `C[C@@H](NC(=O)c1cnc(C#N)c(-c2cc(F)cc(F)c2)c1N1CC[C@](C)(N)C1)C(F)(F)F` [1-222, 4-[(3S)-3-amino-3-methylpyrrolidin-1-yl]-6-cyano-5-(3,5-difluorophenyl)-N-[(2R)-1,1,1-trifluoropropan-2-yl]pyridine-3-carboxamide], with less than 10 nM; and `Cc1ncc(C(=O)NCC2(O)CCCC2)c(N2CC[C@](C)(N)C2)c1-c1cc(F)cc(F)c1` [1-223, 4-[(3S)-3-amino-3-methylpyrrolidin-1-yl]-5-(3,5-difluorophenyl)-N-[(1-hydroxycyclopentyl)methyl]-6-methylpyridine-3-carboxamide], with 10 to 100 nM; and `Cc1ncc(C(=O)NC(CO)C2CC2)c(N2CC[C@](C)(N)C2)c1-c1cc(F)cc(F)c1` (stereo partly drawn) [1-224, 4-[(3S)-3-amino-3-methylpyrrolidin-1-yl]-N-(1-cyclopropyl-2-hydroxyethyl)-5-(3,5-difluorophenyl)-6-methylpyridine-3-carboxamide], with 10 to 100 nM.
Take `CC(NC(=O)c1cnc(C#N)c(-c2cc(F)cc(F)c2)c1N1CCC(N)C1)C(F)(F)F` (centres unmarked) [1-225, 4-(3-aminopyrrolidin-1-yl)-6-cyano-5-(3,5-difluorophenyl)-N-(1,1,1-trifluoropropan-2-yl)pyridine-3-carboxamide]: the EC50 was less than 10 nM.
As for `C[C@@H](NC(=O)c1cnc(C#N)c(-c2cc(F)cc(F)c2)c1N1CC[C@@H](N)C1)C(F)(F)F` [1-227, 4-[(3R)-3-aminopyrrolidin-1-yl]-6-cyano-5-(3,5-difluorophenyl)-N-[(2R)-1,1,1-trifluoropropan-2-yl]pyridine-3-carboxamide], the EC50 lay in the range of 100 to 1000 nM.
Regarding `COc1ncc(C(=O)N2CCCCC2)c(N2CC[C@H](N)C2)c1-c1cc(F)cc(F)c1` [1-235, (3S)-1-[3-(3,5-difluorophenyl)-2-methoxy-5-(piperidine-1-carbonyl)pyridin-4-yl]pyrrolidin-3-amine], the EC50 is more than 1000 nM.
In the case of `COc1ncc(C(=O)N2CCC(F)(F)CC2)c(N2CC[C@H](N)C2)c1-c1cc(F)cc(F)c1` [1-236, (3S)-1-[3-(3,5-difluorophenyl)-5-(4,4-difluoropiperidine-1-carbonyl)-2-methoxypyridin-4-yl]pyrrolidin-3-amine], the EC50 is more than 1000 nM.
On to `COc1ncc(C(=O)N2CCCC(F)(F)C2)c(N2CC[C@H](N)C2)c1-c1cc(F)cc(F)c1` [1-237, (3S)-1-[3-(3,5-difluorophenyl)-5-(3,3-difluoropiperidine-1-carbonyl)-2-methoxypyridin-4-yl]pyrrolidin-3-amine], for which the EC50 is more than 1000 nM.
Still for that read-out and setting: the same measure for `COc1ncc(C(=O)N[C@@H](C)c2ccccn2)c(N2CC[C@](C)(N)C2)c1-c1cc(F)cc(OC(F)F)c1` [1-241, 4-[(3S)-3-amino-3-methylpyrrolidin-1-yl]-5-[3-(difluoromethoxy)-5-fluorophenyl]-6-methoxy-N-[(1S)-1-(pyridin-2-yl)ethyl]pyridine-3-carboxamide]: 10 to 100 nM; for `Cc1ncc(C(=O)N[C@@H](C)c2ccccn2)c(N2CC[C@](C)(N)C2)c1-c1cc(F)cc(Cl)c1` [1-243, 4-[(3S)-3-amino-3-methylpyrrolidin-1-yl]-5-(3-chloro-5-fluorophenyl)-6-methyl-N-[(1S)-1-(pyridin-2-yl)ethyl]pyridine-3-carboxamide]: less than 10 nM.
For `C[C@]1(N)CCN(c2c(C(=O)NC3CCC(F)(F)CC3)cnc(C3CC3)c2-c2cc(F)cc(F)c2)C1` [1-281, 4-[(3S)-3-amino-3-methylpyrrolidin-1-yl]-6-cyclopropyl-N-(4,4-difluorocyclohexyl)-5-(3,5-difluorophenyl)pyridine-3-carboxamide], the EC50 is less than 10 nM.
Take `C[C@H](NC(=O)c1cnc(C2CC2)c(-c2cc(F)cc(F)c2)c1N1CC[C@](C)(N)C1)C(F)(F)F` [1-290, 4-[(3S)-3-amino-3-methylpyrrolidin-1-yl]-6-cyclopropyl-5-(3,5-difluorophenyl)-N-[(2S)-1,1,1-trifluoropropan-2-yl]pyridine-3-carboxamide]: the EC50 is less than 10 nM.
With `CCNC(=O)c1cncc(-c2nc3c(C)cccc3[nH]2)c1N1CC[C@](C)(N)C1` [2-1, 4-[(3S)-3-amino-3-methylpyrrolidin-1-yl]-N-ethyl-5-(4-methyl-1H-1,3-benzodiazol-2-yl)pyridine-3-carboxamide], the EC50 lay in the range of 10 to 100 nM.
Same read-out and setting: the same measure for `Cc1cccc2[nH]c(-c3cncc(C(=O)N4CCCC4)c3N3CC[C@](C)(N)C3)nc12` [2-2, (3S)-3-methyl-1-[3-(4-methyl-1H-1,3-benzodiazol-2-yl)-5-(pyrrolidine-1-carbonyl)pyridin-4-yl]pyrrolidin-3-amine]: 10 to 100 nM.
In the case of `CCN(C)C(=O)c1cncc(-c2nc3c(C)cccc3[nH]2)c1N1CC[C@](C)(N)C1` [2-3, 4-[(3S)-3-amino-3-methylpyrrolidin-1-yl]-N-ethyl-N-methyl-5-(4-methyl-1H-1,3-benzodiazol-2-yl)pyridine-3-carboxamide], the EC50 lay within 10 to 100 nM.
Turning to `Cc1cccc2[nH]c(-c3cncc(C(=O)NC4CCCC4)c3N3CC[C@](C)(N)C3)nc12` [2-4, 4-[(3S)-3-amino-3-methylpyrrolidin-1-yl]-N-cyclopentyl-5-(4-methyl-1H-1,3-benzodiazol-2-yl)pyridine-3-carboxamide], the EC50 is less than 10 nM.
For the molecule `Cc1cccc2[nH]c(-c3cncc(C(=O)NC4CCOC4)c3N3CC[C@](C)(N)C3)nc12` (stereo partly drawn) [2-5, 4-[(3S)-3-amino-3-methylpyrrolidin-1-yl]-5-(4-methyl-1H-1,3-benzodiazol-2-yl)-N-(oxolan-3-yl)pyridine-3-carboxamide], the EC50 lay within 100 to 1000 nM.
The same measure, in the same setting: the same measure for `Cc1cccc2[nH]c(-c3cncc(C(=O)Nc4ccccc4)c3N3CC[C@](C)(N)C3)nc12` [2-6, 4-[(3S)-3-amino-3-methylpyrrolidin-1-yl]-5-(4-methyl-1H-1,3-benzodiazol-2-yl)-N-phenylpyridine-3-carboxamide]: less than 10 nM; for `COCCNC(=O)c1cncc(-c2nc3c(C)cccc3[nH]2)c1N1CC[C@](C)(N)C1` [2-8, 4-[(3S)-3-amino-3-methylpyrrolidin-1-yl]-N-(2-methoxyethyl)-5-(4-methyl-1H-1,3-benzodiazol-2-yl)pyridine-3-carboxamide]: 10 to 100 nM; for `Cc1cccc2[nH]c(-c3cncc(C(=O)NCCO)c3N3CC[C@](C)(N)C3)nc12` [2-9, 4-[(3S)-3-amino-3-methylpyrrolidin-1-yl]-N-(2-hydroxyethyl)-5-(4-methyl-1H-1,3-benzodiazol-2-yl)pyridine-3-carboxamide]: 100 to 1000 nM.
In the case of `Cc1cccc2[nH]c(-c3cncc(C(=O)N(C)CC(F)(F)F)c3N3CC[C@](C)(N)C3)nc12` [2-10, 4-[(3S)-3-amino-3-methylpyrrolidin-1-yl]-N-methyl-5-(4-methyl-1H-1,3-benzodiazol-2-yl)-N-(2,2,2-trifluoroethyl)pyridine-3-carboxamide], the EC50 is less than 10 nM.
`Cc1cccc2[nH]c(-c3cncc(C(=O)NC4CC4)c3N3CC[C@](C)(N)C3)nc12` [2-12, 4-[(3S)-3-amino-3-methylpyrrolidin-1-yl]-N-cyclopropyl-5-(4-methyl-1H-1,3-benzodiazol-2-yl)pyridine-3-carboxamide]: the EC50 is 10 to 100 nM.
Still for that read-out and setting: the same measure for `Cc1cccc2[nH]c(-c3cncc(C(=O)NCC4CC4)c3N3CC[C@](C)(N)C3)nc12` [2-13, 4-[(3S)-3-amino-3-methylpyrrolidin-1-yl]-N-(cyclopropylmethyl)-5-(4-methyl-1H-1,3-benzodiazol-2-yl)pyridine-3-carboxamide]: less than 10 nM.
Same read-out and setting: the same measure for `Cc1cccc2[nH]c(-c3cncc(C(=O)NC(C)C4CC4)c3N3CC[C@](C)(N)C3)nc12` (stereo partly drawn) [2-14, 4-[(3S)-3-amino-3-methylpyrrolidin-1-yl]-N-(1-cyclopropylethyl)-5-(4-methyl-1H-1,3-benzodiazol-2-yl)pyridine-3-carboxamide]: less than 10 nM.
Consider `Cc1cccc2[nH]c(-c3cncc(C(=O)N(C)C4CCCC4)c3N3CC[C@](C)(N)C3)nc12` [2-16, 4-[(3S)-3-amino-3-methylpyrrolidin-1-yl]-N-cyclopentyl-N-methyl-5-(4-methyl-1H-1,3-benzodiazol-2-yl)pyridine-3-carboxamide], for which the EC50 was less than 10 nM.

Still in this assay, the particulars now being: Table B; class symbols; SST5 receptor over SST2 receptor.
For `C[C@H](NC(=O)c1cnc(C(F)(F)F)c(-c2ccc(F)c(F)c2)c1N1CC[C@](C)(N)C1)C1CC1` [1-209, 4-[(3S)-3-amino-3-methylpyrrolidin-1-yl]-N-[(1S)-1-cyclopropylethyl]-5-(3,4-difluorophenyl)-6-(trifluoromethyl)pyridine-3-carboxamide], the “Fold selectivity for SST5 vs SST2” value was “+++ (+++=>500)”.

The same assay, now with this note: Table B; inhibition of cAMP via human SST5 receptor; read-out: SST5 potency.
With `C[C@H](NC(=O)c1cnc(C(F)(F)F)c(-c2ccc(F)c(F)c2)c1N1CC[C@](C)(N)C1)C1CC1` [1-209, 4-[(3S)-3-amino-3-methylpyrrolidin-1-yl]-N-[(1S)-1-cyclopropylethyl]-5-(3,4-difluorophenyl)-6-(trifluoromethyl)pyridine-3-carboxamide], the EC50 was less than 10 nM.
The same measure, in the same setting: then `COc1ncc(C(=O)N[C@@H](C)c2ccccn2)c(N2CC[C@](C)(N)C2)c1-c1cc(F)cc(OC(F)F)c1` [1-241, 4-[(3S)-3-amino-3-methylpyrrolidin-1-yl]-5-[3-(difluoromethoxy)-5-fluorophenyl]-6-methoxy-N-[(1S)-1-(pyridin-2-yl)ethyl]pyridine-3-carboxamide], with 10 to 100 nM.
